Measured values: ChEMBL document CHEMBL1129243, “(S)-(+)-2-(3'-carboxybicyclo[1.1.1]pentyl)-glycine, a structurally new group I metabotropic glutamate receptor antagonist” (J Med Chem, 1996)

Assays:
Type in all cases: functional, cell-based
[1] = target: T1, Metabotropic glutamate receptor 5 (Homo sapiens, UniProt P41594); assay: The compound was tested for inhibitory effect on second messenger formation in BHK cells expressing mGluR5a
[2] = target: T2, Metabotropic glutamate receptor 2 (Homo sapiens, UniProt Q14416); assay: The compound was tested for effect on second messenger formation in BHK cells expressing mGluR2
[3] = target: T1, Metabotropic glutamate receptor 5; assay: The compound was tested for effect on second messenger formation in BHK cells expressing mGluR5a
[4] = target: T2, Metabotropic glutamate receptor 2; assay: The compound was tested for inhibitory effect on second messenger formation in BHK cells expressing mGluR2
[5] = target: T3, Metabotropic glutamate receptor 4 (Homo sapiens, UniProt Q14833); assay: The compound was tested for inhibitory effect on second messenger formation in BHK cells expressing mGluR4a
[6] = target: T3, Metabotropic glutamate receptor 4; assay: The compound was tested for effect on second messenger formation in BHK cells expressing mGluR4a
[7] = target: T1, Metabotropic glutamate receptor 5; assay: The compound was tested for effect on second messenger formation in BHK cells expressing mGluR5a at half maximal concentration

T3 sequence (Q14833 whole entry): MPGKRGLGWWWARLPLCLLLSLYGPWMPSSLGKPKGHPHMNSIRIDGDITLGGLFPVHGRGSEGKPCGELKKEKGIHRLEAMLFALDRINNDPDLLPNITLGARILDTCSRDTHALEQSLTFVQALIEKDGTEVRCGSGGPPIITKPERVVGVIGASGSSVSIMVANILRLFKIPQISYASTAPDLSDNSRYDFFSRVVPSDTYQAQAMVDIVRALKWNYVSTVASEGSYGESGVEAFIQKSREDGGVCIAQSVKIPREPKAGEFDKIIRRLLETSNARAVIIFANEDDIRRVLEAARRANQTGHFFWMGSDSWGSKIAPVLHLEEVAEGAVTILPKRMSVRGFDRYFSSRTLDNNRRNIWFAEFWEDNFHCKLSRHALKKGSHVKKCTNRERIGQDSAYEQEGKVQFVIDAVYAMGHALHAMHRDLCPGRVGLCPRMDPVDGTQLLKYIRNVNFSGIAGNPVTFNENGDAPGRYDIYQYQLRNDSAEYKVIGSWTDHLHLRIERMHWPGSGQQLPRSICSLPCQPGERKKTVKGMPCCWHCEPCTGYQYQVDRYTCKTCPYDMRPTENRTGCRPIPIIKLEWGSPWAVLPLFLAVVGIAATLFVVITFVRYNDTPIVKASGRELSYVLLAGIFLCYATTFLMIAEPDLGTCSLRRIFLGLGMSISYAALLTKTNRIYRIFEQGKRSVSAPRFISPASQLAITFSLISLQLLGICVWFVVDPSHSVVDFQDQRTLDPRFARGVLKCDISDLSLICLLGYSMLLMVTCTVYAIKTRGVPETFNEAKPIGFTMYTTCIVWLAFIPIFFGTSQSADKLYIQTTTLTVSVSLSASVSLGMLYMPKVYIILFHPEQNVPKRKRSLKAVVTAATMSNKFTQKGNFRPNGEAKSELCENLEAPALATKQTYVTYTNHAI
T1 sequence (P41594 whole entry): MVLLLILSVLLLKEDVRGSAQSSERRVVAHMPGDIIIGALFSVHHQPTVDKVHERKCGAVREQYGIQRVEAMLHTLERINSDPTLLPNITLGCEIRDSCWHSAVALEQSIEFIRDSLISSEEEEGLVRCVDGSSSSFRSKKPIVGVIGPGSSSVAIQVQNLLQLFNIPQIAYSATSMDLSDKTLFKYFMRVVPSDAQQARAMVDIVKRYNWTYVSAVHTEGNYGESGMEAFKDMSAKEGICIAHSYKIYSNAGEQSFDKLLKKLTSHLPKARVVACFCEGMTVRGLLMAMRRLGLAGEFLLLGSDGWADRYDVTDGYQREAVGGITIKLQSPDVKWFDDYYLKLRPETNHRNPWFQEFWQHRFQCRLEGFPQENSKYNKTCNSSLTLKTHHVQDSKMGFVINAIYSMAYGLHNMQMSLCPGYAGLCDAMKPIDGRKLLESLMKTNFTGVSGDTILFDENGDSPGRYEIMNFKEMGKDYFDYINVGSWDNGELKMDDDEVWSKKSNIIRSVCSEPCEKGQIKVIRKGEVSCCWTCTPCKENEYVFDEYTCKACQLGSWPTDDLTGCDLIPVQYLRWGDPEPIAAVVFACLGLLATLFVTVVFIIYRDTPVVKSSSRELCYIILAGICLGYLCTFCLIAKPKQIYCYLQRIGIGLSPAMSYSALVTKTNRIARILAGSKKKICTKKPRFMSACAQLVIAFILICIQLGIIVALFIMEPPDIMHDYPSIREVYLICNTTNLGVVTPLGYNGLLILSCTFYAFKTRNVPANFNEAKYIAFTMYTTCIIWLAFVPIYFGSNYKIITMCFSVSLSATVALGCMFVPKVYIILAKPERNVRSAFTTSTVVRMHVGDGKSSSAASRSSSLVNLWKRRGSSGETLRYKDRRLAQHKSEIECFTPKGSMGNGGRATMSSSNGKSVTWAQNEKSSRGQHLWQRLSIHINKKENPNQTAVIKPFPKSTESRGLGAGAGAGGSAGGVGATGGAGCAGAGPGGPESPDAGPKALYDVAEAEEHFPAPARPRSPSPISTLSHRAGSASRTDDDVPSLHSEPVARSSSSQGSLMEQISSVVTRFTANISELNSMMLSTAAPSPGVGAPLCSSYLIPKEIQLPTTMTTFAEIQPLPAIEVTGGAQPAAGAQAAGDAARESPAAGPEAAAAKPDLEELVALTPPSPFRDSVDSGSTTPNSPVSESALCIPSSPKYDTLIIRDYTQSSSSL
T2 sequence (Q14416 whole entry): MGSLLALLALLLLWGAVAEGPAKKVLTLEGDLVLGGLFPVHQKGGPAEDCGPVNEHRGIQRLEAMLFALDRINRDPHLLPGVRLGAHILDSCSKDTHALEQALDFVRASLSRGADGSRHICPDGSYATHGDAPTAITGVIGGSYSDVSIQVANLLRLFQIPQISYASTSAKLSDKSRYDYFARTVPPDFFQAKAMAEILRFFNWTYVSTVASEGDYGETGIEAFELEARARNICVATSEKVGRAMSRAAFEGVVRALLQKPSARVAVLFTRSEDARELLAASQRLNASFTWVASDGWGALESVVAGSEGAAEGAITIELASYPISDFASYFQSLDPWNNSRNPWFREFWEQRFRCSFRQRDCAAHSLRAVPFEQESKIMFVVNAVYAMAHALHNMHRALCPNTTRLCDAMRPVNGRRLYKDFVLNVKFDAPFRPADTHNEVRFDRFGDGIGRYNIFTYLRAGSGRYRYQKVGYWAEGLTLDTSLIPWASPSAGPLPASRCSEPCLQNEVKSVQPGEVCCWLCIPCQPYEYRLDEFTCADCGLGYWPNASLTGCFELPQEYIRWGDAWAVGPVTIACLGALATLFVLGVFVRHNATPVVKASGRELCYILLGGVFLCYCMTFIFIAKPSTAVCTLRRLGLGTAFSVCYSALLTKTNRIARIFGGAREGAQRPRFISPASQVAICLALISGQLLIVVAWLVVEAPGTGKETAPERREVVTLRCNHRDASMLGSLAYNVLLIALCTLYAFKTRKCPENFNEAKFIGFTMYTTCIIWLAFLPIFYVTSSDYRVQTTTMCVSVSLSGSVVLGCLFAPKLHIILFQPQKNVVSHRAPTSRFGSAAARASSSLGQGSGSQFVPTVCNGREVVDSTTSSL

Row | Compound | IC50 [1] | EC50 [2] | EC50 [3] | IC50 [4] | IC50 [5] | EC50 [6] | EC50 [7]
1 | N[C@@H](C(=O)O)C12CC(C(=O)O)(C1)C2 | > 300 µM | > 300 µM | > 300 µM | > 300 µM | > 300 µM | > 300 µM | –
2 | N[C@H](C(=O)O)C12CC(C(=O)O)(C1)C2 | > 300 µM | > 300 µM | > 300 µM | > 300 µM | > 300 µM | > 300 µM | 103 µM
